The target of assay [1] is T1, A2A receptor (Homo sapiens, UniProt P29274).
T1 construct: host or cells: HEK-293
As to the kind of experiment: A2aR antagonism IC50, cAMP TR-FRET in HEK-293 cells, high concentration of adenosine (30 μM).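 Note: compounds added 10 min before adenosine, then 30 min stimulation at room temperature in buffer with 100 µM rolipram and 30 µM EHNA, signal read 1 h after detection reagents.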 The format is cell-based. Particulars: HEK-293 cells expressing A2A receptor, agonist adenosine 30 μM, 2% HSA, inhibition of cAMP. In general terms: In TR-FRET formats the signal depends on donor and acceptor labels being close together.

The target in assay [2] is T1, A2A receptor. Kind of assay: A2aR antagonism IC50, cAMP TR-FRET (Lance Ultra) in HEK-293 cells, NECA as agonist.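 Note: compounds tested from 10 µM down to 0.08 nM in buffer with Rolipram at room temperature, TR-FRET cAMP signal read 1 h after adding Eu-cAMP tracer and ULight anti-cAMP.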 The format is cell-based. The following applies: A2AR IC50 (nM) (@5 nM NECA), HEK-293 cells expressing A2A receptor; agonist NECA 5 nM (EC90); inhibition of cAMP.
In assay [3] the target is T2, A2B receptor (Homo sapiens, UniProt P29275).
T2 sequence (P29275 1-332): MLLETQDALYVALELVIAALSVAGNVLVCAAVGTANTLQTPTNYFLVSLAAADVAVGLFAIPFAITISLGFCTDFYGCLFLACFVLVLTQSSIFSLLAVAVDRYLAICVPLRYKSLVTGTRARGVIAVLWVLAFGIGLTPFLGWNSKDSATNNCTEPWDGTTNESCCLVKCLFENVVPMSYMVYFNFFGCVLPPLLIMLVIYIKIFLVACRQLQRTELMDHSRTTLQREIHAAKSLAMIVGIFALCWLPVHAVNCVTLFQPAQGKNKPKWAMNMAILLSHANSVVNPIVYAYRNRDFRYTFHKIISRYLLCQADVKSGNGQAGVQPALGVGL
As to the kind of experiment: A2bR antagonism IC50, cAMP TR-FRET (Lance Ultra) in HEK-293 cells, NECA as agonist. The format is cell-based. Set-up: host or cells: HEK-293. Particulars: HEK-293 cells expressing A2B receptor; agonist NECA 30 nM (EC90); inhibition of cAMP.

Assay [4] concerns the target T2, A2B receptor. As to the kind of experiment: A2bR antagonism IC50, cAMP TR-FRET in HEK-293 cells, high concentration of adenosine (30 μM).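 Note: compounds preincubated 10 min with cells, then adenosine stimulation 30 min at room temperature in buffer with Rolipram 100 µM and EHNA 30 µM, TR-FRET read after 1 h.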 Particulars: A2BR IC50 (nM) (@30 μM Adenosine), HEK-293 cells expressing A2B receptor; agonist adenosine 30 μM; 2% HSA; inhibition of cAMP.
Experimental: A Time-Resolved Fluorescence Energy Transfer (TR-FRET) assay was used to show the inhibition of this cAMP production in HEK cells upon treatment with compounds of the Formula I of the present disclosure.
HEK-293 cells expressing A2A receptor (#ES-011-C) or A2B receptor (#ES 013-C) were obtained from PerkinElmer. Cells were maintained in DMEM medium supplemented with 10% FBS and 200 μg/mL of G418 at 37° C. and 5% CO2. The cells were cultured in antibiotic free medium for a period of 16-20 hours prior to the assay. All subsequent steps of the assay are performed at room temperature (22-24° C.). […] About 1500 cells per well were pre-incubated for 10 minutes with the compounds of the present invention before adding the agonist Adenosine at a high concentration (30 μM) for a total stimulation time of 30 minutes. […] The assays were conducted in a stimulation buffer containing 1×DMEM, 5 mM HEPES, 2% Human serum albumin (HSA), 100 μM Rolipram and 30 μM erythro-9-(2-hydroxy-3-nonyl) adenine (EHNA). Serial dilutions of compounds were made in stimulation buffer to achieve a final concentration of high micromolar in a reaction volume of 10 μL. The total reaction volume was 10 μL (5 μL of cells, 2.5 μL of antagonist and 2.5 μL of agonist). […] The stimulation was ended, and the reaction completed by adding 5 μL of 4× Eu-cAMP tracer working solution and 5 μL of 4× ULight-anti-cAMP working solution. The TR FRET signal was measured after 1-hour incubation using a Tecan M1000 or a PerkinElmer Victor Nivo plate reader.
Setting [5] is: read-out: A2AR IC50 (nM) (@30 μM Adenosine).

For orientation: IC50 means the concentration needed to halve the response being measured.

T1 sequence (P29274 whole entry): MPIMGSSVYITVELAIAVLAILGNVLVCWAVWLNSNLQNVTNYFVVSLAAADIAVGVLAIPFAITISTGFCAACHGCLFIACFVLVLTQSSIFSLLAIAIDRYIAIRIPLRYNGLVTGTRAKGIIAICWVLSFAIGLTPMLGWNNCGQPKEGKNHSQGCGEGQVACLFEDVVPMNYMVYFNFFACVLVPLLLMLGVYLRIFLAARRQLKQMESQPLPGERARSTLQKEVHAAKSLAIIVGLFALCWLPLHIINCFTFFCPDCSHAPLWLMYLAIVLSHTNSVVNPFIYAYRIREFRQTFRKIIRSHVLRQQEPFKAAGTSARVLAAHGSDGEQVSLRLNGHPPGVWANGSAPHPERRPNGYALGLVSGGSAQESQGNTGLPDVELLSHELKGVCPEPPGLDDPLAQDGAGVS

For `Cc1nn2c(N)c(C#N)c(NCCc3cc(C)n(C4(CO)CC4)n3)nc2c1C` [Example 86, 7-amino-5-((2-(1-(1-(hydroxymethyl)cyclopropyl)-5-methyl-1H-pyrazol-3-yl)ethyl)amino)-2,3-dimethylpyrazolo[1,5-a]pyrimidine-6-carbonitrile], the IC50 at A2A receptor [1] (setting [5]) is 43 nM; on A2A receptor [2] it was 0.2 nM; on A2B receptor [3], 19 nM; at A2B receptor [4], 2550 nM.

In the case of `CCc1cccc(CCNc2nc3c(C)c(C)nn3c(N)c2C#N)n1` [Example 40, 7-amino-5-((2-(6-ethylpyridin-2-yl)ethyl)amino)-2,3-dimethyl pyrazolo [1,5-a] pyrimidine-6-carbonitrile], the IC50 is 260 nM on A2A receptor [1] (setting [5]), < 0.1 nM at A2A receptor [2], 3.6 nM on A2B receptor [3] and 2380 nM on A2B receptor [4].

In the case of `CCc1c(C)nn2c(N)c(C#N)c(NCCc3cccc(C)n3)nc12` [Example 17, 7-Amino-3-ethyl-2-methyl-5-((2-(6-methylpyridin-2-yl)ethyl)amino) pyrazolo[1,5-a]pyrimidine-6-carbonitrile], the IC50 on A2A receptor [1] (setting [5]) was determined as 260 nM; at A2A receptor [2], 0.15 nM; on A2B receptor [3], 0.87 nM; at A2B receptor [4] it was 2380 nM.

`Cc1nn2c(N)c(C#N)c(NCCc3cccc(C4CC4CO)n3)nc2c1C` (stereo not drawn) [Example 51, 7-amino-5-((2-(6-(2-(hydroxymethyl)cyclopropyl)pyridin-2-yl)ethyl)amino)-2,3-dimethylpyrazolo[1,5-a]pyrimidine-6-carbonitrile]: the IC50 at A2A receptor [1] (setting [5]) is 348 nM; at A2A receptor [2] it was 0.17 nM; at A2B receptor [3], 2.1 nM; at A2B receptor [4], 1290 nM.

Consider `CCc1c(C)nn2c(N)c(C#N)c(NCCc3cccc(C4(CO)CC4)n3)nc12` [Example 50, 7-amino-3-ethyl-5-((2-(6-(1-(hydroxymethyl)cyclopropyl)pyridin-2-yl)ethyl)amino)-2-methylpyrazolo[1,5-a] pyrimidine-6-carbonitrile], for which the IC50 at A2A receptor [1] (setting [5]) came to 2160 nM; on A2A receptor [2] it was 0.2 nM; at A2B receptor [3] it was 3.6 nM; on A2B receptor [4], 2370 nM.

As for `CCc1c(C(F)F)nn2c(N)c(C#N)c(NCCc3ccn(C4(CO)CC4)n3)nc12` [Example 58, 7-amino-2-(difluoromethyl)-3-ethyl-5-((2-(1-(1-(hydroxymethyl)cyclopropyl)-1H-pyrazol-3-yl)ethyl)amino) pyrazolo[1,5-a]pyrimidine-6-carbonitrile], the IC50 at A2A receptor [1] (setting [5]) came to 756 nM; on A2A receptor [2], 0.22 nM; on A2B receptor [3], 4.7 nM; at A2B receptor [4], 12200 nM.

As for `CCc1c(C)nn2c(N)c(C#N)c(NCCc3ccn(C4CCC4CO)n3)nc12` (racemic) [Example 77, (+−)-7-amino-3-ethyl-5-((2-(1-(2-(hydroxymethyl)cyclobutyl)-1H-pyrazol-3-yl)ethyl)amino)-2-methylpyrazolo[1,5-a]pyrimidine-6-carbonitrile], the IC50 was found to be 81 nM at A2A receptor [1] (setting [5]), 0.1 nM on A2A receptor [2], 2 nM at A2B receptor [3] and 700 nM at A2B receptor [4].

Consider `Cc1nn2c(N)c(C#N)c(NCCc3cccc(C4CC4CO)n3)nc2c1Cl` (stereo not drawn) [Example 38, 7-amino-3-chloro-5-((2-(6-(2-(hydroxymethyl)cyclopropyl)pyridin-2-yl)ethyl)amino)-2-methylpyrazolo[1,5-a]pyrimidine-6-carbonitrile], for which the IC50 on A2A receptor [1] (setting [5]) worked out at 178 nM; at A2A receptor [2], 0.1 nM; on A2B receptor [3] it was 4.4 nM.

Consider `CCc1c(C)nn2c(N)c(C#N)c(NCCc3ccn(C4CCCC4CO)n3)nc12` (stereo not drawn) [Example 115, 7-amino-3-ethyl-5-((2-(1-(2-(hydroxymethyl)cyclopentyl)-1H-pyrazol-3-yl)ethyl)amino)-2-methylpyrazolo[1,5-a]pyrimidine-6-carbonitrile], for which the IC50 on A2A receptor [1] (setting [5]) stood at 117 nM; at A2A receptor [2] it was 0.3 nM; at A2B receptor [3], 9 nM; on A2B receptor [4], 829 nM.

On to `Cc1nn2c(N)c(C#N)c(NCCc3cccc(C(C)(C)CO)n3)nc2c1Cl` [Example 65, 7-amino-3-chloro-5-((2-(6-(1-hydroxy-2-methylpropan-2-yl)pyridin-2-yl)ethyl)amino)-2-methylpyrazolo[1,5-a]pyrimidine-6-carbonitrile], for which the figures for the IC50 on A2A receptor [1] (setting [5]), at A2A receptor [2] and at A2B receptor [3] were 227 nM, < 1 nM and 27 nM, respectively.

Regarding `Cc1nn2c(N)c(C#N)c(NCCc3ccn(C4CCC4CN)n3)nc2c1Cl` (stereo not drawn) [Example 95, 7-amino-5-((2-(1-(2-(aminomethyl)cyclobutyl)-1H-pyrazol-3-yl)ethyl)amino)-3-chloro-2-methylpyrazolo[1,5-a]pyrimidine-6-carbonitrile], the IC50 is 112 nM on A2A receptor [1] (setting [5]), 1.2 nM at A2A receptor [2], 53 nM on A2B receptor [3] and 1060 nM at A2B receptor [4].

For `CCc1c(C)nn2c(N)c(C#N)c(NCCc3cccc(CO)n3)nc12` [Example 45, 7-amino-3-ethyl-5-((2-(6-(hydroxymethyl)pyridin-2-yl)ethyl)amino)-2-methylpyrazolo[1,5-a] pyrimidine-6-carbonitrile], the IC50 on A2A receptor [1] (setting [5]) came out at 935 nM; on A2A receptor [2] it was 0.58 nM; on A2B receptor [3], 2.9 nM; at A2B receptor [4] it was 650 nM.

`Cc1nn2c(N)c(C#N)c(NCCc3cccc(C4(CO)CC4)n3)nc2c1Cl` [Example 34, 7-amino-3-chloro-5-((2-(6-(1-(hydroxymethyl)cyclopropyl)pyridin-2-yl)ethyl)amino)-2-methylpyrazolo[1,5-a]pyrimidine-6-carbonitrile]: the figures for the IC50 on A2A receptor [1] (setting [5]), at A2A receptor [2] and on A2B receptor [3] were 160 nM, 0.4 nM and 6 nM, respectively.

`Cc1nn2c(N)c(C#N)c(NCCc3ccn(C4(CO)CC4)n3)nc2c1C` [Example 55, 7-amino-5-((2-(1-(1-(hydroxymethyl)cyclopropyl)-1H-pyrazol-3-yl)ethyl)amino)-2,3-dimethylpyrazolo[1,5-a]pyrimidine-6-carbonitrile]: the IC50 came out at 250 nM on A2A receptor [1] (setting [5]), 0.74 nM at A2A receptor [2], 8.6 nM at A2B receptor [3] and 3790 nM on A2B receptor [4].

Take `Cc1nn2c(N)c(C#N)c(NCCc3ccn(C4(CO)CC4)n3)nc2c1Cl` [Example 37, 7-amino-3-chloro-5-((2-(1-(1-(hydroxymethyl)cyclopropyl)-1H-pyrazol-3-yl)ethyl)amino)-2-methylpyrazolo[1,5-a]pyrimidine-6-carbonitrile]: the IC50 at A2A receptor [1] (setting [5]) was determined as 78 nM; at A2A receptor [2], 0.12 nM; at A2B receptor [3], 7 nM; on A2B receptor [4], 1770 nM.

Take `CCc1c(C)nn2c(N)c(C#N)c(NCCc3ccn(C(C)(C)CO)n3)nc12` [Example 32, 7-amino-3-ethyl-5-((2-(1-(1-hydroxy-2-methylpropan-2-yl)-1H-pyrazol-3-yl)ethyl)amino)-2-methylpyrazolo[1,5-a]pyrimidine-6-carbonitrile]: the IC50 at A2A receptor [1] (setting [5]) stood at 452 nM; at A2A receptor [2], 0.5 nM; at A2B receptor [3], 7.3 nM; at A2B receptor [4], 2130 nM.

`Cc1nn2c(N)c(C#N)c(NCCc3nc(C4(CO)CC4)cs3)nc2c1Cl` [Example 61, 7-amino-3-chloro-5-((2-(4-(1-(hydroxymethyl)cyclopropyl)thiazol-2-yl)ethyl)amino)-2-methylpyrazolo[1,5-a] pyrimidine-6-carbonitrile]: the IC50 at A2A receptor [1] (A2AR IC50 (nM) (@30 μM Adenosine)) was 574 nM; at A2A receptor [2] it was < 1 nM; at A2B receptor [3] it was 24 nM.

`Cc1nn2c(N)c(C#N)c(NCCc3cccc(CO)n3)nc2c1Cl` [Example 33, 7-amino-3-chloro-5-((2-(6-(hydroxymethyl)pyridin-2-yl)ethyl)amino)-2-methylpyrazolo[1,5-a]pyrimidine-6-carbonitrile]: the IC50 on A2A receptor [1] (setting [5]) is 206 nM; on A2A receptor [2], 0.38 nM; at A2B receptor [3], 0.97 nM; on A2B receptor [4], 1420 nM.

With `Cc1nn2c(N)c(C#N)c(NCCc3cccc(C4(CO)CC4)n3)nc2c1C` [Example 49, 7-amino-5-((2-(6-(1-(hydroxymethyl)cyclopropyl)pyridin-2-yl)ethyl)amino)-2,3-dimethylpyrazolo[1,5-a]pyrimidine-6-carbonitrile], the IC50 on A2A receptor [1] (setting [5]) came to 635 nM; at A2A receptor [2], 0.3 nM; on A2B receptor [3], 6 nM; on A2B receptor [4] it was 4260 nM.

The record behind these values is US12577247B2 (BUGWORKS RESEARCH, INC., priority 2021, dated 2026).
